“Also recorded” adds a separate entry of the source. Read-outs that look alike come from different tables or passages of the source.
Legend:
[1] = assay type: in vivo, rat; settings: for Hippocampus exposure / Plasma exposure / Young Hippocampus exposure / Young Plasma exposure: young Long Evans rats; for Aged Hippocampus exposure / Aged Plasma exposure: aged Long Evans rats
Procedure: (§1) Food and water were available ad libitum.
For plasma exposures, blood samples were centrifuged at 14000 rpm for 16 minutes. After centrifuging, 50 ul of supernatant (plasma) from each sample was added to 200 μl of acetonitrile plus 0.1% formic acid. […] Samples were sonicated for 5 minutes in an ultrasonic water bath, followed by centrifugation for 30 minutes, at 16000 RPM. 100 ul of supernatant was removed from each sample vial and placed in a new glass auto sample vial, followed by the addition of 300 μl of sterile water (pH 6.5).
Additional studies were conducted in aged Long-Evans rats in order to determine the exposures at the behaviorally relevant doses in the cognition studies. Exposure in young Long-Evans rats was also determined to bridge with the receptor occupancy studies that were conducted in young Long-Evans rats. Exposures in young and aged Long-Evans rats were relatively similar (Table 4, FIG. 4).

α5-containing GABAA R = target: T1, α5-containing GABAA R (Homo sapiens, UniProt P18507+P31644); settings: EC20; cited from earlier work
T1 sequence (P31644 32-462): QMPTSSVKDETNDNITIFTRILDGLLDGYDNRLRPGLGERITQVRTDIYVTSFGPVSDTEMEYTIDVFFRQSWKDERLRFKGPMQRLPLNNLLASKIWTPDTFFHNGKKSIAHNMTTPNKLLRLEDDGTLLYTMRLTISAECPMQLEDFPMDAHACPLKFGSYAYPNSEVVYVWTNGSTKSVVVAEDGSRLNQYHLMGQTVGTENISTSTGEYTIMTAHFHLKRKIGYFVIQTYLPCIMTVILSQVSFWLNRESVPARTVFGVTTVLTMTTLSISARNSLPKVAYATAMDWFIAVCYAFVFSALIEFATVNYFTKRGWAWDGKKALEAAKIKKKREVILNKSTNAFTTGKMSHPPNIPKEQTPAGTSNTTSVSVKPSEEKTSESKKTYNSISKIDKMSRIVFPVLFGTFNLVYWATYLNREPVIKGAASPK
T1 sequence (P28472 26-473 partner): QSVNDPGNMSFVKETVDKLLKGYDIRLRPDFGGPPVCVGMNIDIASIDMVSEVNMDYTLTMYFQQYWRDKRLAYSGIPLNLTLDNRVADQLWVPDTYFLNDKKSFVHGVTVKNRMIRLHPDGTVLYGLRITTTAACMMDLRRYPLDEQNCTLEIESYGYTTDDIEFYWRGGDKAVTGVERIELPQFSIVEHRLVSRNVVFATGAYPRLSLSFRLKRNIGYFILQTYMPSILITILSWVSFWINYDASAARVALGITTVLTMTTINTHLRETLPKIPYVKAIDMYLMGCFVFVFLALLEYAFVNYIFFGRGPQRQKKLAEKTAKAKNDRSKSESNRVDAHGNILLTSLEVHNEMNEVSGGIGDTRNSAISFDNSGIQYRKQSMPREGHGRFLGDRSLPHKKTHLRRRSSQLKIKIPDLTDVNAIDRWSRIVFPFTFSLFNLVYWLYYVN
T1 sequence (P18507 40-467 limits assumed): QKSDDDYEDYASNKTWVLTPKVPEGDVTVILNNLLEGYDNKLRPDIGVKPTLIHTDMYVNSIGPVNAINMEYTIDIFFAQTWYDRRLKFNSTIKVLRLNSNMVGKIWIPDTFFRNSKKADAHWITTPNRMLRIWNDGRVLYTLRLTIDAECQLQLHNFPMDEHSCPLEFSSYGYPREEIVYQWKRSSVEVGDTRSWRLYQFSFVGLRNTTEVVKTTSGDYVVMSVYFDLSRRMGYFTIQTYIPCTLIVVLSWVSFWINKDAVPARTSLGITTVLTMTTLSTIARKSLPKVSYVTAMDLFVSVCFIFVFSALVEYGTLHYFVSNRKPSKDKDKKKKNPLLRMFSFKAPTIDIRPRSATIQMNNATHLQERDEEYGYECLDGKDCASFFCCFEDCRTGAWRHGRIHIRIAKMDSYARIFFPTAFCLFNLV

GABAA α5 receptor = target: T2, GABAA α5 receptor (Rattus norvegicus, UniProt P18508+P19969); experiment: GABAA α5 receptor occupancy with Ro 15-4513 tracer (hippocampus vs cerebellum); assay type: in vivo; settings: for % RO (L-655,708 Method): young Long Evans rats
T2 construct: from tissue; host or cells: rat brain in vivo; hippocampus versus cerebellum
T2 sequence (P19969 32-464 limits assumed): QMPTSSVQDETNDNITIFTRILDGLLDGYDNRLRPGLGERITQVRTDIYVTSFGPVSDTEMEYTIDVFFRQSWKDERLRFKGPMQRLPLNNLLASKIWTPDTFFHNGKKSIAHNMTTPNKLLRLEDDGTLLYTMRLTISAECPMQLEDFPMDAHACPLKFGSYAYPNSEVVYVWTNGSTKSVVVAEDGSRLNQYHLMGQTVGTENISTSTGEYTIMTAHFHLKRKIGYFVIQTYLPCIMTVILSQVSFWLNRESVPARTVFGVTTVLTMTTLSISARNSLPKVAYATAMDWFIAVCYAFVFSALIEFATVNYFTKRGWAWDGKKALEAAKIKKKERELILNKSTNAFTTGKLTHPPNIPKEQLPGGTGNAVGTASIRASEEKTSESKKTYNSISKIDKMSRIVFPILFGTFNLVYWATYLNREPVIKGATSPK
T2 sequence (P18508 39-466): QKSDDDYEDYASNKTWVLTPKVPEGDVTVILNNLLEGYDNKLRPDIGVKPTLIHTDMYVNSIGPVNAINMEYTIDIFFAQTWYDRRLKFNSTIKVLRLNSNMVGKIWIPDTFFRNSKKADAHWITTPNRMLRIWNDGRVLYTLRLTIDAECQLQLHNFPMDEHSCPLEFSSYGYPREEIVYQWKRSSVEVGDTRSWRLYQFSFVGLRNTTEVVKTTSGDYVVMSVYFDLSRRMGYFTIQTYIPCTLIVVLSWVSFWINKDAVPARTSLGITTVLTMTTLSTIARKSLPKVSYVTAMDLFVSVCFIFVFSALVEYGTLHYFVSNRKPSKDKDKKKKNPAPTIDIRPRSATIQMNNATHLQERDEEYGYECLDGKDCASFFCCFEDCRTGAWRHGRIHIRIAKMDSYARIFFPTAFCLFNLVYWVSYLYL
Excerpt: as §1

aged-impaired (AI) rats = experiment: Radial Arm Maze (RAM) behavioral task, spatial memory retention; assay type: in vivo, rat; settings: two-hour delay
Procedure: The effects of methyl 3,5-diphenylpyridazine-4-carboxylate on the in vivo spatial memory retention of aged-impaired (AI) rats were assessed in a Radial Arm Maze (RAM) behavioral task using vehicle control and four different dosage levels of methyl 3,5-diphenylpyridazine-4-carboxylate (0.1 mg/kg, 0.3 mg/kg, 1 mg/kg and 3 mg/kg, ip). RAM behavioral tasks were performed on eight AI rats. All five treatment conditions (vehicle and four dosage levels) were tested on all eight rats.
The RAM apparatus used consisted of eight equidistantly-spaced arms. An elevated maze arm (7 cm width×75 cm length) projected from each facet of an octagonal center platform (30 cm diameter, 51.5 cm height). Clear side walls on the arms were 10 cm high and were angled at 65° to form a trough. A food well (4 cm diameter, 2 cm deep) was located at the distal end of each arm. Froot Loops™ (Kellogg Company) were used as rewards. Blocks constructed of Plexiglas™ (30 cm height×12 cm width) could be positioned to prevent entry to any arm. Numerous extra maze cues surrounding the apparatus were also provided.
The AI rats were initially subjected to a pre-training test (Chappell et al. Neuropharmacology 37: 481-487, 1998). The pre-training test consisted of a habituation phase (4 days), a training phase on the standard win-shift task (18 days) and another training phase (14 days) in which a brief delay was imposed between presentation of a subset of arms designated by the experimenter (e.g., 5 arms available and 3 arms blocked) and completion of the eight-arm win-shift task (i.e., with all eight arms available).
In the habituation phase, rats were familiarized to the maze for an 8-minute session on four consecutive days. In each of these sessions, food rewards were scattered on the RAM, initially on the center platform and arms and then progressively confined to the arms. After this habituation phase, a standard training protocol was used, in which a food pellet was located at the end of each arm. Rats received one trial each day for 18 days. Each daily trial terminated when all eight food pellets had been obtained or when either 16 choices were made or 15 minutes had elapsed. After completion of this training phase, a second training phase was carried out in which the memory demand was increased by imposing a brief delay during the trial. At the beginning of each trial, three arms of the eight-arm maze were blocked. Rats were allowed to obtain food on the five arms to which access was permitted during this initial “information phase” of the trial. Rats were then removed from the maze for 60 seconds, during which time the barriers on the maze were removed, thus allowing access to all eight arms. […]

SMILES: COC(=O)c1c(-c2ccccc2)cnnc1-c1ccccc1 [methyl 3,5-diphenylpyridazine-4-carboxylate]
- Hippocampus exposure ([1]; 0.01 mg/kg i.v.): BQL
- Plasma exposure ([1]; 0.01 mg/kg i.v.): BQL
- Plasma exposure ([1]; 0.1 mg/kg i.v.): BQL
- Hippocampus exposure ([1]; 1 mg/kg i.v.): 180.0 ng/g
- Aged Hippocampus exposure ([1]; 1 mg/kg ip): 38.8 ng/g
- Aged Plasma exposure ([1]; 1 mg/kg ip): 45.2 ng/mL
- Young Hippocampus exposure ([1]; 1 mg/kg ip): 25.9 ng/g
- Young Plasma exposure ([1]; 1 mg/kg ip): 20.0 ng/mL
- Aged Hippocampus exposure ([1]; 3 mg/kg ip): 177.5 ng/g
- Aged Plasma exposure ([1]; 3 mg/kg ip): 196 ng/mL
- Young Hippocampus exposure ([1]; 3 mg/kg ip): 129.1 ng/g
- Young Plasma exposure ([1]; 3 mg/kg ip): 132.9 ng/mL
- brain/plasma ratios ([1]; Long Evans, rat, in vivo): > 1
- increase in hippocampal exposure ([1]; dose from 0.1 to 1 mg/kg, i.v.): 12 fold
- increase in hippocampal exposure ([1]; dose from 1 to 10 mg/kg, i.v.): ~5 fold
- increase in plasma exposure ([1]; dose from 1 to 10 mg/kg, i.v.): 12 fold
- α5 in vitro efficacy (α5-containing GABAA R): +27
- % RO (L-655,708 Method) (GABAA α5 receptor; 0.01 mg/kg i.v.): 19.2%
- % RO (L-655,708 Method) (GABAA α5 receptor; 0.1 mg/kg i.v.): 16.4%
- % RO (L-655,708 Method) (GABAA α5 receptor; 1 mg/kg i.v.): 38.5%
- effect on Ro 15-4513 binding in hippocampus (GABAA α5 receptor; 0.01-10 mg/kg, i.v.): dose-dependently reduced; also recorded: blocked
- effect on Ro 15-4513 levels (binding) in cerebellum (GABAA α5 receptor; 0.01-10 mg/kg, i.v.): without affecting; also recorded: did not affect
- GABAA α5 receptors occupied (GABAA α5 receptor; at exposures behaviorally active in aged-impaired rats (FIG. 4)): about 32%
- receptor occupancy at 10 mg/kg (GABAA α5 receptor; rat, iv, 10 mg/kg): > 90%
- ED50 (GABAA α5 receptor; rat, iv, ratio method): 1.8 mg/kg
- average no. of errors ± SEM, retention test (aged-impaired (AI) rats; 3 mg/kg ip): 1.31±0.40
- memory performance relative to vehicle control (aged-impaired (AI) rats; 3 mg/kg, t(7)=4.233, p=0.004): significantly improved memory performance

From US12528819B2 (priority 2016, dated 2026)
